Earlier results in patent US20040142860A1, “Central nervous system-derived immune privilege factor and uses thereof” (Yeda Research and Development Co. Ltd., priority 1996, published 2004).

System: ganglion cell degradation in the retina
Details: single or repeated injections into the vitreous body

Substance: Threonine-Lysine-Proline [TKP]
- effect on axotomy-induced ganglion cell degradation in the retina: retardation of axotomy-induced ganglion cell degradation in the retina
